# Assay results taken from patent US8048898B2, “Inhibitor of binding of S1P1” (Taisho Pharmaceutical Co., Ltd, priority 2007, dated 2011).
# pIC50: −log10 of the molar value.
# Target: T1, human Edg-1(S1P1) (Homo sapiens, UniProt P21453)
# T1 construct: expressed in transfected cells; host or cells: HEK-293
# Test: S1P1 Binding Test ([33P]-S1P, membrane fraction of HEK-293 cell line carrying the human Edg-1(S1P1) gene)
# Settings: [33P]-S1P 0.1 nM; for pIC50: membrane binding test at various concentrations, read-out: IC50 value, Edg-1(S1P1) binding inhibition; for inhibition at 10 µM: compound at 10 μM, 30° C., 1 hour, read-out: inhibition rate of Edg-1(S1P1) binding
# Protocol: The membrane fraction of a HEK-293 cell line carrying the human Edg-1(S1P1) gene was used to study the compounds of the present invention for their inhibitory effect on Edg-1(S1P1) binding, as described in Science. […] To obtain the membrane fraction, treatment with solubilizing buffer (1 mM Tris/HCl, pH 7.2) for 10 minutes on ice was performed, followed by centrifugation at 1000×g for 5 minutes to remove an insoluble fraction and then at 40000×g for 30 minutes at 4° C. The resulting membrane fraction was dissolved in binding buffer (20 mM Tris-HCl, pH 7.4, 100 mM NaCl, 15 mM NaF, 2 mM deoxypyridoxine, 4 mg/mL fatty acid-free BSA), followed by addition of binding buffer containing [^33P]-S1P (ARC, final concentration: 0.1 nM) and DMSO solution of a test compound (final concentration of the compound: 10^−5 M, final concentration of DMSO: 0.1%). After stirring, the reaction solution was incubated at 30° C. for 1 hour. The membrane fraction was collected onto a unifilter-96 GF/C filter (Perkin Elmer) using a harvester and washed four times with binding buffer, followed by drying the filter. After addition of 25 μL Microscint 0 (Perkin Elmer), radioactivity was measured with a Top Count NXT (Packard) to calculate amount (A), i.e., the amount of [^33P]-S1P binding to the membrane fraction in the presence of the compound.
# The same procedure was performed in the absence of any test compound to calculate amount (B), i.e., the amount of [^33P]-S1P binding. Moreover, the same procedure was also performed with HEK-293 cells carrying no Edg-1(S1P1) gene in the absence of any test compound to calculate amount (C), i.e., the amount of background [^33P]-S1P binding.
# The inhibition rate of Edg-1(S1P1) binding was calculated for each compound by the following equation. Inhibition rate (%)=[1−(A−C)/(B−C)]×100
# Moreover, the activity of each test compound was calculated as a value (IC50 value) showing 50% of the radioactivity obtained in the absence of any test compound. Namely, the above membrane system binding test was performed in the presence of a test compound at various concentrations to calculate an IC50 value according to the dose-dependent inhibition curve analyzed with data analysis software, Origin (Lightstone Corp., Japan).
# T1 sequence (P21453 whole entry): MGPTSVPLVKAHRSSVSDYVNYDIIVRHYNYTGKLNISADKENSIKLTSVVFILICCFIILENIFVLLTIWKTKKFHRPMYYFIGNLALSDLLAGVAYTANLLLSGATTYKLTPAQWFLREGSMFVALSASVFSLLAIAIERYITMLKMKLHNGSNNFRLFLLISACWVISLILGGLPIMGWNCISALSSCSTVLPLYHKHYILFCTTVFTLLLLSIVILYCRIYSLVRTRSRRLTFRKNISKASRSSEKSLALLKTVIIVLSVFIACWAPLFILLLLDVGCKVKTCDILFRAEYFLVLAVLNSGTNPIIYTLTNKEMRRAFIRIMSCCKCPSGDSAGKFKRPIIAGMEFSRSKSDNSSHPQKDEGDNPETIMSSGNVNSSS
Molecule,pIC50,inhibition at 10 µM [%]
CCc1c(Oc2cccc(N3CCN(C)CC3)c2)ccnc1C(C)NS(=O)(=O)c1ccc(Cl)c(Cl)c1 (stereo not drawn) [Compound 5],–,≥ 3
Cc1c(C(C)NS(=O)(=O)c2ccc(Cl)c(Cl)c2)ccnc1Oc1cccc(N2CCN(C)CC2)c1 (stereo not drawn) [Compound 6],–,≥ 3
CCCc1c(C(C)NS(=O)(=O)c2ccc(Cl)c(Cl)c2)ccnc1Oc1cccc(N2CCN(C)CC2)c1 (stereo not drawn) [Compound 10],–,≥ 3
CCc1c(C(CC)NS(=O)(=O)c2ccc(Cl)c(Cl)c2)ccnc1Oc1cccc(N2CCN(C)CC2)c1 (stereo not drawn) [Compound 12],–,≥ 3
CCc1c(CNS(=O)(=O)c2ccc3c(Cl)cccc3c2)ccnc1Oc1cccc(N2CCN(C)CC2)c1 [Compound 15],–,≥ 3
CCc1c(C(C)NS(=O)(=O)c2ccc(Cl)c(Cl)c2)ccnc1Oc1ccc(OC)cc1 (stereo not drawn) [Compound 17],–,≥ 3
CCc1c(C(C)NS(=O)(=O)c2ccc(Cl)c(Cl)c2)ccnc1Oc1ccc2ccncc2c1 (stereo not drawn) [Compound 20],–,≥ 3
CCc1c(C(C)NS(=O)(=O)c2ccc(Cl)c(Cl)c2)ccnc1Oc1cccc(N(C)C)c1 (stereo not drawn) [Compound 22],≥ 6.70,≥ 3
CCc1c(C(C)NS(=O)(=O)c2ccc(Cl)c(Cl)c2)ccnc1OCC(F)(F)F (stereo not drawn) [Compound 24],–,≥ 3
CCc1c(C(C)NS(=O)(=O)c2ccc(Cl)c(Cl)c2)ccnc1OCc1ccccc1 (stereo not drawn) [Compound 25],–,≥ 3
"CCc1c(C(C)NS(=O)(=O)c2ccc(Cl)c(Cl)c2)ccnc1OC(C)C (stereo not drawn) [Compound 26, 3,4-Dichloro-N-[1-(2-isopropoxy-3-ethyl-pyridin-4-yl)-ethyl]-benzenesulfonamide]",–,≥ 3
"CCc1c(C(C)NS(=O)(=O)c2ccc3c(Cl)cccc3c2)ccnc1Oc1cccc(N2CCOCC2)c1 (stereo not drawn) [Compound 27, 5-Chloronaphthalene-2-sulfonic acid {1-[3-ethyl-2-(3-morpholin-4-yl-phenoxy)-pyridin-4-yl]-ethyl}-amide]",7.29,≥ 3
"CCc1c([C@@H](C)NS(=O)(=O)c2ccc(Cl)c(Cl)c2)ccnc1Oc1cccc(N2CCN(C)CC2)c1 [Compound 28, (R)-3,4-Dichloro-N-(1-{3-ethyl-2-[3-(4-methyl-piperazin-1-yl)-phenoxy]-pyridin-4-yl}-ethyl)-benzenesulfonamide]",7.31,≥ 3
CCc1c(C(C)NS(=O)(=O)c2ccc(Cl)c(Cl)c2)ccnc1OC1CCC1 (stereo not drawn) [Compound 30],–,≥ 3
CCc1c(C(C)NS(=O)(=O)c2ccc3c(Cl)cccc3c2)ccnc1Oc1cccc(N2CCN(C)CC2)c1 (stereo not drawn) [Compound 31],7.46,≥ 3
CCc1c(C(C)NS(=O)(=O)c2ccccc2)ccnc1Oc1cccc(N2CCOCC2)c1 (stereo not drawn) [Compound 32],–,≥ 3
CCc1c(C(C)NS(=O)(=O)c2ccc(OC)cc2)ccnc1Oc1cccc(N2CCOCC2)c1 (stereo not drawn) [Compound 36],–,≥ 3
CCc1c(C(C)NS(=O)(=O)c2ccc([N+](=O)[O-])cc2)ccnc1Oc1cccc(N2CCOCC2)c1 (stereo not drawn) [Compound 39],–,≥ 3
CCc1c(C(C)NS(=O)(=O)c2cccc(Br)c2)ccnc1Oc1cccc(N2CCOCC2)c1 (stereo not drawn) [Compound 42],–,≥ 3
CCc1c(C(C)NS(=O)(=O)c2ccccc2F)ccnc1Oc1cccc(N2CCOCC2)c1 (stereo not drawn) [Compound 43],–,≥ 3
CCc1c(C(C)NS(=O)(=O)c2ccc(C(C)=O)cc2)ccnc1Oc1cccc(N2CCOCC2)c1 (stereo not drawn) [Compound 44],–,≥ 3
CCc1c(C(C)NS(=O)(=O)c2ccc(Br)s2)ccnc1Oc1cccc(N2CCOCC2)c1 (stereo not drawn) [Compound 47],–,≥ 3
CCc1c(C(C)NS(=O)(=O)c2ccc3ncccc3c2)ccnc1Oc1cccc(N2CCOCC2)c1 (stereo not drawn) [Compound 50],–,≥ 3

# Further lines, results first:
pIC50,inhibition at 10 µM [%],Molecule
6.92,–,5-Chloro-naphthalene-2-sulfonic acid (1-{3-ethyl-4-[3-(4-methyl-piperazin-1-yl)-phenoxy]-pyridin-2-yl}-ethyl)-amide [Compound 4]
7.48,≥ 3,"CCc1c(C(C)NS(=O)(=O)c2ccc3c(Cl)cccc3c2)ccnc1Sc1cccc(N2CCN(C)CC2)c1 (single isomer, unassigned) [Compound 61]"
–,≥ 3,CCc1c(Oc2ccc(C)cc2)nc(C)nc1C(C)NS(=O)(=O)c1ccc(Cl)c(Cl)c1 (stereo not drawn) [Compound 1]
–,≥ 3,CCc1c(Oc2ccc(C)cc2)nc(C)nc1C(C)NS(=O)(=O)c1ccc2c(Cl)cccc2c1 (stereo not drawn) [Compound 2]
6.97,≥ 3,"CCc1c(C(C)NS(=O)(=O)c2ccc(Cl)c(Cl)c2)ccnc1Oc1cccc(N2CCN(C)CC2)c1 (stereo not drawn) [Compound 3, 3,4-Dichloro-N-(1-{3-ethyl-2-[3-(4-methyl-piperazin-1-yl)-phenoxy]-pyridin-4-yl}-ethyl)-benzenesulfonamide]"
≥ 6.70,≥ 3,Cc1c(C(C)NS(=O)(=O)c2ccc3c(Cl)cccc3c2)ccnc1Oc1cccc(N2CCN(C)CC2)c1 (stereo not drawn) [Compound 7]
–,≥ 3,CC(NS(=O)(=O)c1ccc(Cl)c(Cl)c1)c1ccnc(Oc2cccc(N3CCN(C)CC3)c2)c1 (stereo not drawn) [Compound 8]
–,≥ 3,CC(NS(=O)(=O)c1ccc2c(Cl)cccc2c1)c1ccnc(Oc2cccc(N3CCN(C)CC3)c2)c1 (stereo not drawn) [Compound 9]
≥ 6.70,≥ 3,CCCc1c(C(C)NS(=O)(=O)c2ccc3c(Cl)cccc3c2)ccnc1Oc1cccc(N2CCN(C)CC2)c1 (stereo not drawn) [Compound 11]
7.33,≥ 3,CCc1c(C(CC)NS(=O)(=O)c2ccc3c(Cl)cccc3c2)ccnc1Oc1cccc(N2CCN(C)CC2)c1 (stereo not drawn) [Compound 13]
–,≥ 3,CCc1c(CNS(=O)(=O)c2ccc(Cl)c(Cl)c2)ccnc1Oc1cccc(N2CCN(C)CC2)c1 [Compound 14]
–,≥ 3,CCc1c(C(C)NS(=O)(=O)c2ccc(Cl)c(Cl)c2)ccnc1Oc1ccc(C)cc1 (stereo not drawn) [Compound 16]
–,≥ 3,CCc1c(C(C)NS(=O)(=O)c2ccc(Cl)c(Cl)c2)ccnc1Oc1ccc(Cl)cc1 (stereo not drawn) [Compound 18]
7.18,≥ 3,CCc1c(C(C)NS(=O)(=O)c2ccc(Cl)c(Cl)c2)ccnc1Oc1cccc(N2CCOCC2)c1 (stereo not drawn) [Compound 19]
–,≥ 3,CCc1c(C(C)NS(=O)(=O)c2ccc(Cl)c(Cl)c2)ccnc1Oc1ccc2ccccc2c1 (stereo not drawn) [Compound 21]
–,≥ 3,CCc1c(C(C)NS(=O)(=O)c2ccc(Cl)c(Cl)c2)ccnc1OC (stereo not drawn) [Compound 23]
–,≥ 3,"CCc1c([C@H](C)NS(=O)(=O)c2ccc(Cl)c(Cl)c2)ccnc1Oc1cccc(N2CCN(C)CC2)c1 [Compound 29, (S)-3,4-Dichloro-N-(1-{3-ethyl-2-[3-(4-methyl-piperazin-1-yl)-phenoxy]-pyridin-4-yl}-ethyl)-benzenesulfonamide]"
–,≥ 3,CCc1c(C(C)NS(=O)(=O)c2ccccc2C)ccnc1Oc1cccc(N2CCOCC2)c1 (stereo not drawn) [Compound 33]
–,≥ 3,CCc1c(C(C)NS(=O)(=O)c2cccc(C)c2)ccnc1Oc1cccc(N2CCOCC2)c1 (stereo not drawn) [Compound 34]
–,≥ 3,CCc1ccc(S(=O)(=O)NC(C)c2ccnc(Oc3cccc(N4CCOCC4)c3)c2CC)cc1 (stereo not drawn) [Compound 35]
–,≥ 3,CCc1c(C(C)NS(=O)(=O)c2ccc(C(F)(F)F)cc2)ccnc1Oc1cccc(N2CCOCC2)c1 (stereo not drawn) [Compound 37]
–,≥ 3,CCc1c(C(C)NS(=O)(=O)c2ccc(OC(F)(F)F)cc2)ccnc1Oc1cccc(N2CCOCC2)c1 (stereo not drawn) [Compound 38]
–,≥ 3,CCc1c(C(C)NS(=O)(=O)c2ccc(C#N)cc2)ccnc1Oc1cccc(N2CCOCC2)c1 (stereo not drawn) [Compound 40]
–,≥ 3,CCc1c(C(C)NS(=O)(=O)c2ccc(Cl)cc2)ccnc1Oc1cccc(N2CCOCC2)c1 (stereo not drawn) [Compound 41]
–,≥ 3,CCc1c(C(C)NS(=O)(=O)c2ccc(F)c(Cl)c2)ccnc1Oc1cccc(N2CCOCC2)c1 (stereo not drawn) [Compound 45]
–,≥ 3,CCc1c(C(C)NS(=O)(=O)c2ccc(C)c(Cl)c2)ccnc1Oc1cccc(N2CCOCC2)c1 (stereo not drawn) [Compound 46]
7.20,≥ 3,CCc1c(C(C)NS(=O)(=O)c2ccc(Cl)c(Cl)c2Cl)ccnc1Oc1cccc(N2CCOCC2)c1 (stereo not drawn) [Compound 48]
–,≥ 3,CCc1c(C(C)NS(=O)(=O)c2cccnc2)ccnc1Oc1cccc(N2CCOCC2)c1 (stereo not drawn) [Compound 49]
–,≥ 3,CCc1c(C(C)NS(=O)(=O)c2cc3ccccc3s2)ccnc1Oc1cccc(N2CCOCC2)c1 (stereo not drawn) [Compound 51]
